Paper PMC10251509, “Ultrafast Fragment Screening Using Photo-Hyperpolarized (CIDNP) NMR” (Journal of the American Chemical Society, 2023)
Where a SMILES comes first, the peptide text is derived from it.

Target: T1, PDZ2 domain of human tyrosine phosphatase 1E (hPTP1E) (Homo sapiens, UniProt Q12923)
T1 construct: the PDZ2 domain of human tyrosine phosphatase 1E (hPTP1E); polyhistidine (N); made in house; host or cells: Escherichia coli BL21 (DE3)
T1 sequence (Q12923 1368-1452 limits assumed): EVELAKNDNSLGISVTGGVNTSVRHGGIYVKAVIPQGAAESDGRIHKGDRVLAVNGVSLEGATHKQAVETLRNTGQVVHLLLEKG
Assay: [15N,1H]-HSQC chemical shift perturbation / titration of peptides with PDZ2 domain
Type: binding
Conditions: [15N,1H]-HSQC-based titration series, calculated by Titan
Excerpt: To establish a proof of concept, we decided to design and study peptides that bind to the PDZ2 domain of human tyrosine phosphatase comprising a tryptophane at the N-terminus of the peptides for detection by photo-CIDNP since tryptophane is known to be well polarized in the presence of fluorescein.[10],[25] The positive and negative control peptides (i.e., WVSAV and WEKLQT, respectively) were then checked in their binding capacity using [^15N,^1H]-HSQC experiments (Figure 2A,C).
Figure 2 Peptide binding studies of peptides to the PDZ2 domain of the human tyrosine phosphatase by standard chemical shift perturbation 2D NMR experiments and photo-CIDNP 1D ^1H NMR. (A) and (C) 2D [^15N,^1H]-HSQC spectra of the ^15N-labeled PDZ2 domain in the absence (black) and presence (green) of the peptide WVSAV (A) or WEKLQT (C), the experiments were recorded each within ca. 30 min. Photo-CIDNP ^1H 1D NMR spectra of the tryptophane aromatic resonances of (B) WVSAV and (D) WEKLQT in the absence (black lines) and presence (green lines) of the PDZ2 domain of the human tyrosine phosphatase, the experiments were recorded each within ca. 5 s. All of the 1D NMR spectra are single-scan experiments and were recorded with 100 μM peptide, ±100 μM PDZ2 domain at 298 K. The hyperpolarization was triggered by 4 s of light irradiation (450 nm, 1 W) in the presence of 25 μM fluorescein in photo-CIDNP buffer. […]

Structure (SMILES): CC(C)[C@H](NC(=O)[C@H](C)NC(=O)[C@H](CO)NC(=O)[C@@H](NC(=O)[C@@H](N)Cc1c[nH]c2ccccc12)C(C)C)C(=O)O [WVSAV] (H-WVSAV-OH)
- Kd: 111 ± 3.3 µM
